Results as given in ChEMBL document CHEMBL5236633, “Multi-therapies Based on PARP Inhibition: Potential Therapeutic Approaches for Cancer Treatment” (J Med Chem, 2022).

Experiments:
MDA-MB-231 [1] = test: Antiproliferative activity against human MDA-MB-231 cells assessed as cell growth inhibition at 10 uM incubated for 24 hrs by CCK-8 assay relative to control; type: functional; set-up: scale not given: the % may be the effect or the level left
MDA-MB-231 [2] = test: Antiproliferative activity against human MDA-MB-231 cells assessed as cell growth inhibition incubated for 24 hrs by CCK-8 assay; type: functional, cell-based; settings: MDA-MB-231, 24 h
[3] = target: Epidermal growth factor receptor (Homo sapiens, UniProt P00533); test: Inhibition of EGFR (unknown origin)
[4] = target: T1, Poly [ADP-ribose] polymerase 1 (Homo sapiens, UniProt P09874); test: Inhibition of PARP1 (unknown origin)
A549 [5] = test: Antiproliferative activity against human A549 cells assessed as cell growth inhibition measured after 24 hrs by MTT assay; type: functional, cell-based; settings: A549, 24 h
A549 [6] = test: Antiproliferative activity against human A549 cells assessed as cell growth inhibition; type: functional, cell-based
MDA-MB-231 [7] = test: Antiproliferative activity against human MDA-MB-231 cells assessed as cell growth inhibition incubated for 24 hrs in presence of nutlin-3 by CCK-8 assay; settings: MDA-MB-231, 24 h
[8] = target: Protein cereblon/Poly [ADP-ribose] polymerase 1 (Homo sapiens, UniProt P09874+Q96SW2); test: Protac activity at CRBN/PARP1 in human HeLa cells assessed as induction of PARP-1 degradation measured after 24 hrs by immunoblotting analysis; type: cell-based
[9] = target: T1, Poly [ADP-ribose] polymerase 1; test: Inhibition of PARP1 (unknown origin) incubated for 30 mins by fluorescence based analysis
MDA-MB-436 = test: Antiproliferative activity against human BRCA1 -/- MDA-MB-436 cells assessed as cell growth inhibition; type: functional, cell-based
[10] = target: T2, Protein mono-ADP-ribosyltransferase PARP16 (Homo sapiens, UniProt Q8N5Y8); test: Inhibition of PARP16 (unknown origin)
T2 sequence (Q8N5Y8 whole entry): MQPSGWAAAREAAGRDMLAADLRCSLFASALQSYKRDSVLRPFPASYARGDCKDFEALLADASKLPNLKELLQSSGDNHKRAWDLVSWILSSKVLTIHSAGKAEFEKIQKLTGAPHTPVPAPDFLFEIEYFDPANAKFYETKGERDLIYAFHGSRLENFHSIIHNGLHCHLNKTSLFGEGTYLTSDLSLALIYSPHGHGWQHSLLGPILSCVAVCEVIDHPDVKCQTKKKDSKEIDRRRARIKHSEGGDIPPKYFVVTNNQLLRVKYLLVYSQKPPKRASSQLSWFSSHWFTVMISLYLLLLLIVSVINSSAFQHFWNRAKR

[11] = target: T3, Protein mono-ADP-ribosyltransferase PARP3 (Homo sapiens, UniProt Q9Y6F1); test: Inhibition of PARP3 (unknown origin)
T3 sequence (Q9Y6F1 whole entry): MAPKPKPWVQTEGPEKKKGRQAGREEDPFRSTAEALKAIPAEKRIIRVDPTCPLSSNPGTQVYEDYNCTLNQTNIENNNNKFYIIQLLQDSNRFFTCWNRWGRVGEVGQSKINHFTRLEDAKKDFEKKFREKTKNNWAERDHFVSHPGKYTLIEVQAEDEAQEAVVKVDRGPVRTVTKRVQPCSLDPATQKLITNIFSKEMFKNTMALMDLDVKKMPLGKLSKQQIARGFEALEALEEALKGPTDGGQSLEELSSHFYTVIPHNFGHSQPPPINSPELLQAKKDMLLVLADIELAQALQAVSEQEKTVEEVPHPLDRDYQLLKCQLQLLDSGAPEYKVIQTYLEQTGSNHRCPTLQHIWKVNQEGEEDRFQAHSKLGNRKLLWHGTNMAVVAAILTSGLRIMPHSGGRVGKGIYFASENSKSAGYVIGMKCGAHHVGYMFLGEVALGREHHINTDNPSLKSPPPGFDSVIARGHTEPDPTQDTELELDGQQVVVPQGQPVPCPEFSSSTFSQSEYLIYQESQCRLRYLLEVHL

T1 sequence (P09874 whole entry): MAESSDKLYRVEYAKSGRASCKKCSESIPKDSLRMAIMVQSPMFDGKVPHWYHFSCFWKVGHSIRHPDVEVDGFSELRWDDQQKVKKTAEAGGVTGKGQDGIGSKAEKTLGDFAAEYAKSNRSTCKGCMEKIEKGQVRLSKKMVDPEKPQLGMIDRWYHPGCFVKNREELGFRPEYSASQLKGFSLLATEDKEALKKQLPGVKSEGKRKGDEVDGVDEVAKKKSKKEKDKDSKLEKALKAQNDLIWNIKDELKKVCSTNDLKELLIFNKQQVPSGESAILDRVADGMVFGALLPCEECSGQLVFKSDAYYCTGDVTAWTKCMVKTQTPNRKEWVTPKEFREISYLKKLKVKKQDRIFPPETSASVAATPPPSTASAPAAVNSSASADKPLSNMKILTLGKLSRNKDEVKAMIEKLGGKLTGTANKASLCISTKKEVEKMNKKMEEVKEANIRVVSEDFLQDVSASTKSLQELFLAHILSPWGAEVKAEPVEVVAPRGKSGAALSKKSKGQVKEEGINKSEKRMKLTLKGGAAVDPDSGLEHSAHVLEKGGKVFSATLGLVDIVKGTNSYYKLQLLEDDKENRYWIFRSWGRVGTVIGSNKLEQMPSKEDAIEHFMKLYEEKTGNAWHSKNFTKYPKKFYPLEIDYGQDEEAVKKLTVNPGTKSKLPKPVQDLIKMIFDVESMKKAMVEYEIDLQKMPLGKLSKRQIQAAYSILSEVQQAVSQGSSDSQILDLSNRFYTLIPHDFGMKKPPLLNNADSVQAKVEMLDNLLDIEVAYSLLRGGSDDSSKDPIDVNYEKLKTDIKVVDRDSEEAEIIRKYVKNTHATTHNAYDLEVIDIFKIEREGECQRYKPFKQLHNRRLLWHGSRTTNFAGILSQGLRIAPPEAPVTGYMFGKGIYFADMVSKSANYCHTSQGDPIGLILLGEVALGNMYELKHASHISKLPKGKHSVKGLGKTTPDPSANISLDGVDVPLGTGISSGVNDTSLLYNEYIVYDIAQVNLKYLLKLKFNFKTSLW
Protein cereblon/Poly [ADP-ribose] polymerase 1, sequence (P09874 whole entry): as above
Protein cereblon/Poly [ADP-ribose] polymerase 1, sequence (Q96SW2 whole entry): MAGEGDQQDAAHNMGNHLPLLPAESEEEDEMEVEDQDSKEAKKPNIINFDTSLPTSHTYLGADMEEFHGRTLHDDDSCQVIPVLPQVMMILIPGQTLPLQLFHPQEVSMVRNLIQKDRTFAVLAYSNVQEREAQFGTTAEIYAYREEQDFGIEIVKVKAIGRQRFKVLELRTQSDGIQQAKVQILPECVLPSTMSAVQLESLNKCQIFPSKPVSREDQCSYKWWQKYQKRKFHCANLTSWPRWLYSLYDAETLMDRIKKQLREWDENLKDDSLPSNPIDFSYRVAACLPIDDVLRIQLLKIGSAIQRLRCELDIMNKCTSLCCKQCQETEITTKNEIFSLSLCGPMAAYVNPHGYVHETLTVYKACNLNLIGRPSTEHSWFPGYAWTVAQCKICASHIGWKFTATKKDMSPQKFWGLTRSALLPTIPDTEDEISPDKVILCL
Epidermal growth factor receptor, sequence (P00533 whole entry): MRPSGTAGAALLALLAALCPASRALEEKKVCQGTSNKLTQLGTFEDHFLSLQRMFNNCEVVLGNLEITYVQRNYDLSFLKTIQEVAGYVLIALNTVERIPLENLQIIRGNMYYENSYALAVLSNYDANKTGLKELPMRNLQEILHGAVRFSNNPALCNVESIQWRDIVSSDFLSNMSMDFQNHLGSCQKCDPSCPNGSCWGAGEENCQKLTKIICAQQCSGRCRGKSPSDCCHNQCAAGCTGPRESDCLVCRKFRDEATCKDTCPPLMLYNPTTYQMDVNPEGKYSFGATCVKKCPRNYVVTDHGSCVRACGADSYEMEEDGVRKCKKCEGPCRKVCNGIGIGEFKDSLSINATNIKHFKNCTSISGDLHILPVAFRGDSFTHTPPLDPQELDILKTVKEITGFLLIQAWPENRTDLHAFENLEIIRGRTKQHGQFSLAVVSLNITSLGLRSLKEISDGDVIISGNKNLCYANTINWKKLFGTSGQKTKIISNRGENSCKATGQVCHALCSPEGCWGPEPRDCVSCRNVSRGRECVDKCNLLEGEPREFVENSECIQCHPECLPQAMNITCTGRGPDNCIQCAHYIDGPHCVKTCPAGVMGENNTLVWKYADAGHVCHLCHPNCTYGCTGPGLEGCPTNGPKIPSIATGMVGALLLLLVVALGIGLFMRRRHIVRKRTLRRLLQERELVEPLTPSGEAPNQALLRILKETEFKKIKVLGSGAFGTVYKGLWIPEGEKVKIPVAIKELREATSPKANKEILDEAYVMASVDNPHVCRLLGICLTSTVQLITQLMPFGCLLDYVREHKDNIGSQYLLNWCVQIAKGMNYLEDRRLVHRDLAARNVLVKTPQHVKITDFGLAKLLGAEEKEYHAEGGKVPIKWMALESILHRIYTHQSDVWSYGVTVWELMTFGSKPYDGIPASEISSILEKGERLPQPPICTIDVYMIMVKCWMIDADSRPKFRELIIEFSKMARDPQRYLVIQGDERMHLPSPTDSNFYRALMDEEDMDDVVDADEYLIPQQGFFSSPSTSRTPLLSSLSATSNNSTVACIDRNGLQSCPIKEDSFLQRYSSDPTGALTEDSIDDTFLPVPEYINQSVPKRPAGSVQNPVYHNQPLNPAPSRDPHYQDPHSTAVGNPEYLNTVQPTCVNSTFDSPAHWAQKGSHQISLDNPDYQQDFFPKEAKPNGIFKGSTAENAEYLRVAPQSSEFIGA

**Q.** Which results are given for `COc1ccc(C2=N[C@H](c3ccc(Cl)cc3)[C@H](c3ccc(Cl)cc3)N2C(=O)N2CCN(CC(=O)NCCOCCOCCOCCOCCn3cc(-c4ccc(-n5cc6cccc(C(N)=O)c6n5)cc4)nn3)C(=O)C2)c(OC(C)C)c1`?
**A.** Activity (MDA-MB-231 [1]): 70%; IC50 (MDA-MB-231 [2]): 8.45 µM

**Q.** With `Cc1nnc2n1N=C(c1ccccc1OCCNCCCNCCOc1ccccc1C1=Nn3c(C)nnc3SC1)CS2` as the molecule, how does the IC50 [3] read?
**A.** 0.0647 µM

**Q.** What about the IC50 [4] of the same molecule?
**A.** 0.00137 µM

**Q.** `COc1ccc(C2=NC(c3ccc(Cl)cc3)C(c3ccc(Cl)cc3)N2C(=O)N2CCNC(=O)C2)c(OC(C)C)c1` (centres undefined) was tested. Which IC50 (MDA-MB-231 [2]) did it give?
**A.** 28.5 µM

**Q.** How did the IC50 (A549 [5]) turn out when `O=C1CCc2cc(-c3ccccc3F)ccc2C2(CCCCC2)N1` was run?
**A.** 2.01 µM

**Q.** And the IC50 [4]?
**A.** 0.0199 µM

**Q.** `O=C1CN(Cc2cn(-c3ccccc3F)nn2)C2(CCCCC2)c2ccccc21` was tested. Which IC50 (A549 [6]) did it give?
**A.** 0.23 µM

**Q.** What about the IC50 [4] of the same molecule?
**A.** 0.0144 µM

**Q.** How did the IC50 (MDA-MB-231 [7]) turn out when `NC(=O)c1cccc2cn(-c3ccc([C@@H]4CCCNC4)cc3)nc12` [NIRAPARIB] was run?
**A.** 60.9 µM

**Q.** What about the IC50 (MDA-MB-231 [2]) of the same molecule?
**A.** 33.2 µM

**Q.** How did the DC50 [8] turn out when `CN(CCOCCOCCOCCOCCOCCOCCNc1cccc2c1C(=O)N(C1CCC(=O)NC1=O)C2=O)Cc1ccc(-c2[nH]c3cc(F)cc4c3c2CCNC4=O)cc1` (centres undefined) was run?
**A.** 0.036 µM

**Q.** What does the source list for `CC(c1nc2cccc(C(N)=O)c2[nH]1)N1CC(=O)N(c2cccc(C(F)(F)F)c2)C1=S` (centres undefined)?
**A.** IC50 [9]: 0.025 µM; IC50 (MDA-MB-436): 1 µM

**Q.** With `O=C(c1ccc(Cc2n[nH]c(=O)c3cccnc23)cc1)N1CCCC1` as the molecule, how does the IC50 [9] read?
**A.** 0.036 µM

**Q.** How did the IC50 (A549 [6]) turn out when `O=C1CCN(Cc2cn(-c3ccccc3F)nn2)C2(CCCCC2)c2ccccc21` was run?
**A.** 1.89 µM

**Q.** Which results are given for `O=C1NCC(c2ccccn2)[C@@H](O)c2cc(Cl)c(Cl)cc21` (some centres undefined)?
**A.** IC50 [10]: 0.362 µM; IC50 [11]: 74.1 µM

**Q.** `O=c1cc(-c2ccc(O)c(-c3c(O)cc(O)c4c(=O)cc(-c5ccc(O)cc5)oc34)c2)oc2cc(O)cc(O)c12` [AMENTOFLAVONE] was tested. Which IC50 [4] did it give?
**A.** 0.198 µM
